Columns and labels:
[1] = target: 17beta-hydroxysteroid dehydrogenase type 1 (Homo sapiens); test: Displacement of [3H]estrone human recombinant 17beta-HSD1 expressed in Escherichia coli BL21 (DE3)-RIL by competitive inhibition assay in presence of bacterial homogenate
[2] = target: 17beta-hydroxysteroid dehydrogenase type 1 (Homo sapiens); test: Displacement of [3H]estrone human recombinant 17beta-HSD1 expressed in Escherichia coli BL21 (DE3)-RIL by scintillation counting in presence of bacterial homogenate
[3] = target: 17beta-hydroxysteroid dehydrogenase type 1 (Homo sapiens); test: Inhibition of 17beta-HSD1

| Compound | Ki [1] [nM] | IC50 [2] [nM] | IC50 [3] [nM] |
| --- | --- | --- | --- |
| CC(=O)c1cc2ccc(OS(=O)(=O)C(F)(F)F)cc2oc1=O [3-Acetyl-2-oxo-2H-chromen-7-yl trifluoromethanesulfonate] | 173 | 360 |  |
| CC(=O)c1cc2ccc(-c3ccc(O)cc3)cc2oc1=O [3-Acetyl-7-(4-hydroxyphenyl)-2H-chromen-2-one] | 143 | 270 |  |

Other lines, results leading:

| Ki [1] [nM] | IC50 [2] [nM] | IC50 [3] [nM] | Compound |
| --- | --- | --- | --- |
| 585 | 1140 |  | COc1ccc(-c2ccc3cc(C(C)=O)c(=O)oc3c2)cc1 [3-Acetyl-7-(4-methoxyphenyl)-2H-chromen-2-one] |
| 585 | 1240 |  | CC(=O)c1cc2ccc(-c3ccc(C)cc3)cc2oc1=O [3-Acetyl-7-para-tolyl-2H-chromen-2-one] |
|  |  | 5 | COc1cc(-c2nc3sc4c(O)cccc4c3c(=O)n2Cc2ccccc2)c(Br)c(OC)c1OC [3-Benzyl-2-(2-bromo-3,4,5-trimethoxy-phenyl)-8-hydroxy-3H-benzo[4,5]thieno[2,3-d]pyrimidin-4-one] |

— BindingDB's records for doi:10.1021/jm101104z (University of Ljubljana, 2011)
